Several values for one entry are separate records, joined by “and”; a condition that tells them apart may be missing. Equal entries are not always repeated. Entries after “also recorded” stand apart in the source; their conditions may differ. Where two headings read alike, the source gives them in different places.
Assays:
A549 cells [1] = experiment: In vitro cytotoxicity assay (MTT), A549; conditions: for viability at 10 µM / IC50: Homo sapiens, A549, 48 h; for viability at 10 µM: read-out: percentage of cell viability, A549; for Selectivity index (SI), A549: IC50 against MRC-5/IC50 against A549
Protocol: (§1) The selected cell lines include A549, a lung cancer cell line that is characterized by its high expression of EGFR; SKOV-3, an ovarian cancer cell line, selected for its overexpression of both EGFR and HER2; and the breast cancer cell line (SKBR-3), characterized by HER2 overexpression.
(§2) Cells were passaged regularly at around 80% confluency using […] and maintained in 75 cm^2 flasks at 37 °C in a humidified atmosphere containing 5% CO2.
(§3) Approximately 10 × 10^3 cells were seeded per well of the 96-well plates using drug-free media and incubated for 24 h. […] After 48 h of drug exposure, the supernatant was aspirated, and the cells were washed with 100 μL of PBS. The MTT assay was performed by creating a stock solution of MTT at a concentration of 5 mg/mL in PBS. From this stock, a solution of MTT in the cell culture media was prepared to achieve a final concentration of 0.5 mg/mL. […] The MTT solution was thereafter removed, and the generated formazan crystals were dissolved by adding 100 μL of propanol/DMSO (50:50) per well. Absorbance was measured at 570 nm, and IC50 values for each compound were calculated by comparison against negative untreated controls.

SKOV-3 cells = experiment: In vitro cytotoxicity assay (MTT), SKOV-3; format: cell-based, human; conditions: for viability at 10 µM: SK-OV-3, read-out: percentage of cell viability, SKOV-3; for viability at 10 µM / IC50: 48 h, MTT; for IC50: mean ± SD, three experiments; for Selectivity index (SI), SKOV-3: IC50 against MRC-5/IC50 against SKOV-3
Protocol: as §1, §2, §3

A2780 cells = experiment: In vitro cytotoxicity assay (MTT), A2780; format: cell-based; conditions: Homo sapiens, 48 h, read-out: percentage of cell viability, A2780
SKBR-3 cells = experiment: In vitro cytotoxicity assay (MTT), SKBR-3; format: cell-based, human; conditions: for IC50: MTT, 48 h, mean ± SD, three experiments; for Selectivity index (SI), SKBR-3: IC50 against MRC-5/IC50 against SKBR-3
Protocol: as §1, §2, §3

[2] = In vitro cytotoxicity assay (MTT), normal cell line MRC-5; format: cell-based; conditions: MRC-5 normal embryonic lung cells, normal human embryonic lung cell line, mean ± SD
Protocol: as §2, §3

EGFR = target: T1, EGFR (Homo sapiens, UniProt P00533); experiment: In vitro enzyme inhibition assay, EGFR Kinase Assay Kit (BPS Bioscience); format: biochemical; conditions: three independent experiments; read-out: Protein Kinase Inhibition IC50, EGFR
T1 construct: purchased BPS Bioscience 40321

HER2 = target: T2, HER2 (Homo sapiens, UniProt P04626); experiment: In vitro enzyme inhibition assay, HER2 Kinase Assay Kit (BPS Bioscience); format: biochemical; conditions: three independent experiments; read-out: Protein Kinase Inhibition IC50, HER2
T2 construct: purchased BPS Bioscience 40721

A549 cells [3] = experiment: Cell cycle assay (PI, flow cytometry); format: cell-based, human; conditions: A549, IC50 concentration; for Cell cycle comment / DNA Content (%) %G0–G1 / DNA Content (%) %G2/M / DNA Content (%) %S: 24 h; for DNA Content (%) %G0–G1 / DNA Content (%) %G2/M / DNA Content (%) %S: mean ± SD; for Cell Cycle Distribution Index (CDI): CDI = (G2/M + S)/(G0–G1)
Protocol: In a flat-bottom 6-well plate, 3 × 10^5 A549 cells were seeded per well and incubated at 37 °C for 24 h to allow attachment. […] Following a 24 h incubation period, the supernatant was removed by suction, and adherent cells were washed with PBS and collected with trypsin. Additionally, negative control (untreated) samples were also prepared. The cells were resuspended in 2 mL of 80% v/v of cold methanol for 45 min to achieve fixation. After centrifugation, the methanol was discarded, and the resulting cell pellets were washed and stained at room temperature for 30 min in the dark using propidium iodide PI (10% v/v of a 1 mg/mL stock solution in PBS) and RNAse (15% v/v of a 1 mg/mL stock solution in PBS). The cells were analyzed using flow cytometry, reading histograms in the red channel adjusted to PI (Em. 617 nm, Ex. 535 nm).

A549 cells [4] = experiment: Apoptosis analysis (Annexin V-FITC/PI, flow cytometry); format: cell-based, human; conditions: A549, IC50 concentration, 24 h; for Apoptosis, Early / Apoptosis, Late / Necrosis: mean ± SD, % printed in text only
Protocol: Briefly, in flat-bottom 6-well plates, a total of 3 × 10^5 A549 cells were seeded per well and maintained at 37 °C for 24 h in a CO2 humidified atmosphere. Next, the cells were subjected to treatment with the equipotent concentration (1xIC50) of the tested compounds in the cell culture media. Following a 24 h incubation period, the supernatant was removed by suction, and attached cells were washed with PBS and collected using trypsin. Following the quenching of trypsin with culture media, the cells were resuspended as a single cell suspension in Annexin V binding buffer with 1% (v/v) propidium iodide and 1% (v/v) Annexin V-FITC. Negative (untreated) control samples were also included in the experiment. The samples were analyzed using flow cytometry, reading PI at Em. 617 nm, Ex. 535 nm, and Annexin-V-FITC at Em. 520 nm, Ex. 488 nm, while collecting 20,000 events/sample.

[5] = test system: A549, SKOV-3, A2780, SKBR-3 cells; experiment: MTT assay, ranges stated over several cell lines; format: cell-based, human; conditions: Homo sapiens; 10 µM, 48 h; A549 and SKOV-3; read-out: cell viability range for A549 and SKOV-3
Protocol: as §1, §2, §3

[6] = read-out: Cytotoxicity (IC50), A549, MTT, 48 h, mean ± SD, three experiments

T2 sequence (P04626 23-1255): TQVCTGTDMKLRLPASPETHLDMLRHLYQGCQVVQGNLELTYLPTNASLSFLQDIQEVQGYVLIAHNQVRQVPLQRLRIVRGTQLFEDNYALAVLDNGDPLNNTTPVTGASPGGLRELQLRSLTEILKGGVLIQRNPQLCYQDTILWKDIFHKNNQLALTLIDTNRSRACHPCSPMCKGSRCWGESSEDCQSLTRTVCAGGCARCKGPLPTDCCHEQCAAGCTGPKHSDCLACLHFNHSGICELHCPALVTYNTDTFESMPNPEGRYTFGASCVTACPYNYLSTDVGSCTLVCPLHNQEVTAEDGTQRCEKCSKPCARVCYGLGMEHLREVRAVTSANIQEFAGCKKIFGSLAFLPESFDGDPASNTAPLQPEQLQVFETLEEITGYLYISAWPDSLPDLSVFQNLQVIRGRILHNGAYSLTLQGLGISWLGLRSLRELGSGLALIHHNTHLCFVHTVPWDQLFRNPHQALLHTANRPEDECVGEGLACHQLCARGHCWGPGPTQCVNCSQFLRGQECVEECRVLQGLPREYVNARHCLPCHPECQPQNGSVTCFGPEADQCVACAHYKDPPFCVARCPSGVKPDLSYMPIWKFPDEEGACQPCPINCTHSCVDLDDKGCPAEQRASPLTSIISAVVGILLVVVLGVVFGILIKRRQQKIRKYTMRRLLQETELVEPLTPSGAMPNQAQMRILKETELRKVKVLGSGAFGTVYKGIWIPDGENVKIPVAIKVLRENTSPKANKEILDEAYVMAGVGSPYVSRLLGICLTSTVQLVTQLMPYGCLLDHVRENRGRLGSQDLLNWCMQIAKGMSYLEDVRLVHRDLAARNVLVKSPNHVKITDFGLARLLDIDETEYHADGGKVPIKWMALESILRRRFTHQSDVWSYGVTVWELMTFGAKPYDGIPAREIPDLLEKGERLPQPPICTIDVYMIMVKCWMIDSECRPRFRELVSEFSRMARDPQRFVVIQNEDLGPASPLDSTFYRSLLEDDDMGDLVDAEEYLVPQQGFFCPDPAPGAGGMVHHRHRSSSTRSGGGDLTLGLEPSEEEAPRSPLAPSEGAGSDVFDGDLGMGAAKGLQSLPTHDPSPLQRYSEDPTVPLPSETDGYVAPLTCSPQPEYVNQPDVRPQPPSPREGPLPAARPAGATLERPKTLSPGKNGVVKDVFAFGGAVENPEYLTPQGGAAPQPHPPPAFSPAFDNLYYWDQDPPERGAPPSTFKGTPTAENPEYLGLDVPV
T1 sequence (P00533 25-1210): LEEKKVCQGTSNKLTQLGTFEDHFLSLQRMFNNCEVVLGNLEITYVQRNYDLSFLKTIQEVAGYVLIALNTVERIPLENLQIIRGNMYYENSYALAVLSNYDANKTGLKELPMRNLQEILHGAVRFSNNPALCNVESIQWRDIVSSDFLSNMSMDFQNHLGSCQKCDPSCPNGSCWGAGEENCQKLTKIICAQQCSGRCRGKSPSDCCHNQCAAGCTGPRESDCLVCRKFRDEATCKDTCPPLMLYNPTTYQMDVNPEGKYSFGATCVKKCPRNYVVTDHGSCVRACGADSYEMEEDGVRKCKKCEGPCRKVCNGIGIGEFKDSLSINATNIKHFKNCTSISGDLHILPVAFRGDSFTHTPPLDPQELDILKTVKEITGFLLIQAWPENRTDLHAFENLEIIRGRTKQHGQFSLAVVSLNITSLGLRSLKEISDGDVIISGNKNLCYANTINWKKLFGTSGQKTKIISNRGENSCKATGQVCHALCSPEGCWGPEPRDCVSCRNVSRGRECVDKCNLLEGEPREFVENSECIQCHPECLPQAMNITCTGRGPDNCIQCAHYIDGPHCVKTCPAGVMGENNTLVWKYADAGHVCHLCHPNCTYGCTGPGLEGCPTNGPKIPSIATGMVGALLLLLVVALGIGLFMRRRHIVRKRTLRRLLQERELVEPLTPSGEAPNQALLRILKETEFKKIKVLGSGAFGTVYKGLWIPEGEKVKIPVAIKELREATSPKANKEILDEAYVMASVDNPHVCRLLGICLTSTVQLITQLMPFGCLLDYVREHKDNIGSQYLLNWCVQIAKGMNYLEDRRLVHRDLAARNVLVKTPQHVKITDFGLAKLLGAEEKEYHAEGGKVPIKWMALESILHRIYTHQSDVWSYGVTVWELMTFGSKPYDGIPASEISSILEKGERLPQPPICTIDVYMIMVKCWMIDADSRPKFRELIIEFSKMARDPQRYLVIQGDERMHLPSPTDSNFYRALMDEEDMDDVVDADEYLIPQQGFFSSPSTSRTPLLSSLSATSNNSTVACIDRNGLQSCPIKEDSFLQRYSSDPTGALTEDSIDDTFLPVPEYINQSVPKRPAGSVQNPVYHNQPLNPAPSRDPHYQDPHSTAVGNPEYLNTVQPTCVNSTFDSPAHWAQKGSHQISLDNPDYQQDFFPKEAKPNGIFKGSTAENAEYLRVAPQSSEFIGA

O=C(N/N=C/c1ccccc1)c1ccc(Nc2ncnc3c2ncn3C2CCCC2)cc1 [6b, (E)-N′-benzylidene-4-((9-cyclopentyl-9H-purin-6-yl)amino)benzohydrazide]
viability at 10 µM (A549 cells [1]): 50%
viability at 10 µM (SKOV-3 cells; Homo sapiens): 60%
viability at 10 µM (A2780 cells): 52%

COc1cccc(/C=N/NC(=O)c2ccc(Nc3ncnc4nc[nH]c34)cc2)c1 [12a, (E)-4-((7H-Purin-6-yl)amino)-N′-(3-methoxybenzylidene)benzohydrazide]
viability at 10 µM (A549 cells [1]): 75%

O=C(N/N=C/c1cccc(C(F)(F)F)c1)c1ccc(Nc2ncnc3nc[nH]c23)cc1 [16a, (E)-4-((7H-Purin-6-yl)amino)-N′-(3-(trifluoromethyl)benzylidene)benzohydrazide]
viability at 10 µM (A549 cells [1]): 68%
viability at 10 µM (SKOV-3 cells; Homo sapiens): 69%

O=C(N/N=C/c1ccc(F)c(C(F)(F)F)c1)c1ccc(Nc2ncnc3nc[nH]c23)cc1 [17a, (E)-4-((7H-Purin-6-yl)amino)-N′-(4-fluoro-3-(trifluoromethyl)benzylidene) benzohydrazide]
viability at 10 µM (A549 cells [1]): 59%
viability at 10 µM (SKOV-3 cells; Homo sapiens): 63%

N#Cc1ccc(/C=N/NC(=O)c2ccc(Nc3ncnc4nc[nH]c34)cc2)cc1 [7a, (E)-4-((7H-Purin-6-yl)amino)-N′-(4-cyanobenzylidene)benzohydrazide]
viability at 10 µM (A549 cells [1]): 50%
viability at 10 µM (SKOV-3 cells; Homo sapiens): 58%

O=C(N/N=C/c1cccc(-c2ccccc2)c1)c1ccc(Nc2ncnc3nc[nH]c23)cc1 [19a, (E)-4-((7H-purin-6-yl)amino)-N′-([1,1′-biphenyl]-3-ylmethylene)benzohydrazide]
IC50 (A549 cells [1]; [6]): 0.81 ± 0.139 µM
viability at 10 µM (A549 cells [1]): 39%
Selectivity index (SI), A549 (A549 cells [1]): 64.6
IC50 (SKOV-3 cells; Homo sapiens, SK-OV-3, 48 h): 2.19 ± 0.16 µM
viability at 10 µM (SKOV-3 cells; Homo sapiens): 43%
Selectivity index (SI), SKOV-3 (SKOV-3 cells): 23.88
IC50 (SKOV-3 cells): 2.19 ± 0.164 µM
viability at 10 µM (A2780 cells): 18%
IC50 (SKBR-3 cells; Homo sapiens, SK-BR-3, 48 h): 1.41 µM
Selectivity index (SI), SKBR-3 (SKBR-3 cells): 37.03
IC50 (SKBR-3 cells): 1.41 ± 0.362 µM
IC50 at 48 h [2]: 52.36 ± 0.283 µM
IC50 (EGFR): 0.08 µM and 0.081 µM
IC50 (HER2): 0.059 ± 0.002 µM
Cell cycle comment (A549 cells [3]): cell cycle arrest at the G1 phase
DNA Content (%) %G0–G1 (A549 cells [3]): 86.9% and 86.88% and 86.88 ± 0.95 %
DNA Content (%) %G2/M (A549 cells [3]): 3.9% and 3.90 ± 1.22 %
DNA Content (%) %S (A549 cells [3]): 9.2% and 9.21% and 9.21 ± 1.43 %
Cell Cycle Distribution Index (CDI) (A549 cells [3]): 0.15
percentage of live cells (A549 cells [4]): 62.3%
Apoptosis, Early (A549 cells [4]): 9.72% and 9.72 ± 1.06 %
Apoptosis, Late (A549 cells [4]): 23.13% and 23.13 ± 0.73 %
Necrosis (A549 cells [4]): 4.84 ± 0.34%

O=C(N/N=C/c1cccc(-c2ccccc2)c1)c1ccc(Nc2ncnc3c2ncn3C2CCCC2)cc1 [19b, (E)-N′-((1,1′-biphenyl)-3-ylmethylene)-4-((9-cyclopentyl-9H-purin-6-yl)amino)benzohydrazide]
IC50 (A549 cells [1]; [6]): 1.84 ± 0.082 µM
IC50 (SKOV-3 cells; Homo sapiens, SK-OV-3, 48 h): 15.6 ± 1.48 µM
IC50 (SKBR-3 cells; Homo sapiens, SK-BR-3, 48 h): 3.2 ± 0.899 µM

C#Cc1cccc(Nc2ncnc3cc(OCCOC)c(OCCOC)cc23)c1 [Erlotinib, erlotinib, reference compound]
IC50 (A549 cells [1]; read-out: Cytotoxicity (IC50), A549): 2.42 ± 0.784 µM
viability at 10 µM (A549 cells [1]): 48%
IC50 (SKOV-3 cells; Homo sapiens, SK-OV-3, 48 h): 5.18 ± 1.2 µM
viability at 10 µM (SKOV-3 cells; Homo sapiens): 44%
viability at 10 µM (A2780 cells): 39%
IC50 (SKBR-3 cells; Homo sapiens, SK-BR-3, 48 h): 5.12 ± 0.879 µM
IC50 at 48 h [2]: 19.36 ± 0.138 µM

COc1cc(C)c(/C=N/NC(=O)c2ccc(Nc3ncnc4c3ncn4C3CCCC3)cc2)cc1C [18b, (E)-4-((9-cyclopentyl-9H-purin-6-yl)amino)-N′-(4-methoxy-2,5-dimethylbenzylidene) benzohydrazide]
viability at 10 µM [5]: 81 to 100%

O=C(N/N=C/c1cccc2ccccc12)c1ccc(Nc2ncnc3nc[nH]c23)cc1 [23a, (E)-4-((7H-Purin-6-yl)amino)-N′-(naphthalen-1-ylmethylene) benzohydrazide]
viability at 10 µM (A549 cells [1]): 74%
viability at 10 µM (SKOV-3 cells; Homo sapiens): 92%

COc1ccc(/C=N/NC(=O)c2ccc(Nc3ncnc4nc[nH]c34)cc2)cc1 [13a, (E)-4-((7H-Purin-6-yl)amino)-N′-(4-methoxybenzylidene)benzohydrazide]
viability at 10 µM (A549 cells [1]): 86%

NS(=O)(=O)c1cc(/C=N/NC(=O)c2ccc(Nc3ncnc4c3ncn4C3CCCC3)cc2)ccc1F [22b, (E)-5-((2-(4-((9-cyclopentyl-9H-purin-6-yl)amino)benzoyl)hydrazineylidene)methyl)-2-fluorobenzenesulfonamide]
IC50 (A549 cells [1]; [6]): 3.95 ± 0.615 µM
viability at 10 µM (A549 cells [1]): 35%
Selectivity index (SI), A549 (A549 cells [1]): 15.34
IC50 (SKOV-3 cells; Homo sapiens, SK-OV-3, 48 h): 1.54 ± 0.47 µM
viability at 10 µM (SKOV-3 cells; Homo sapiens): 31%
Selectivity index (SI), SKOV-3 (SKOV-3 cells): 39.32
IC50 (SKOV-3 cells): 1.54 ± 0.47 µM
viability at 10 µM (A2780 cells): 47%
IC50 (SKBR-3 cells; Homo sapiens, SK-BR-3, 48 h): 3.8 ± 1.4 µM
Selectivity index (SI), SKBR-3 (SKBR-3 cells): 15.94
IC50 (SKBR-3 cells): 3.8 ± 1.4 µM
IC50 at 48 h [2]: 60.59 ± 0.329 µM
IC50 (EGFR): 0.07 µM and 0.074 µM
IC50 (HER2): 0.03 µM and 0.033 µM
Cell cycle comment (A549 cells [3]): arrests the cell cycle at the G1 phase; also recorded: Cell cycle arrest@G1
DNA Content (%) %G0–G1 (A549 cells [3]): 77.0% and 77.04% and 77.04 ± 1.85 %
DNA Content (%) %G2/M (A549 cells [3]): 4.4% and 4.35% and 4.35 ± 0.29 %
DNA Content (%) %S (A549 cells [3]): 18.6% and 18.60 ± 2.00 %
Cell Cycle Distribution Index (CDI) (A549 cells [3]): 0.29
percentage of live cells (A549 cells [4]): 72.51%
Apoptosis, Early (A549 cells [4]): 5.92% and 5.92 ± 0.74 %
Apoptosis, Late (A549 cells [4]): 18.21% and 18.21 ± 0.12 %
Necrosis (A549 cells [4]): 3.35 ± 0.49%

CS(=O)(=O)CCNCc1ccc(-c2ccc3ncnc(Nc4ccc(OCc5cccc(F)c5)c(Cl)c4)c3c2)o1 [Lapatinib, lapatinib, reference compound]
IC50 (A549 cells [1]; [6]): 11.6 ± 0.249 µM
IC50 (SKOV-3 cells; Homo sapiens, SK-OV-3, 48 h): 16.9 ± 2.57 µM
IC50 (SKBR-3 cells; Homo sapiens, SK-BR-3, 48 h): 8.54 ± 0.64 µM
IC50 at 48 h [2]: 43.94 ± 0.42 µM

O=C(N/N=C/c1ccc([N+](=O)[O-])cc1)c1ccc(Nc2ncnc3nc[nH]c23)cc1 [15a, (E)-4-((7H-Purin-6-yl)amino)-N′-(4-nitrobenzylidene)benzohydrazide]
viability at 10 µM (A549 cells [1]): 49%
viability at 10 µM (SKOV-3 cells; Homo sapiens): 44%

O=C(N/N=C/c1ccccc1)c1ccc(Nc2ncnc3nc[nH]c23)cc1 [6a, (E)-4-((7H-Purin-6-yl)amino)-N′-benzylidenebenzohydrazide]
viability at 10 µM (A549 cells [1]): 63%
viability at 10 µM (SKOV-3 cells; Homo sapiens): 85%

— PMC12299904, “Purine–Hydrazone Scaffolds as Potential Dual EGFR/HER2 Inhibitors” (Pharmaceuticals, 2025)
